From patent US20130123367A1, “VINYLOGOUS CHALCONE DERIVATIVES AND THEIR MEDICAL USE” (MEDIZINISCHE UNIVERSITAT WIEN, priority 2010, published 2013)
Read-outs that look alike come from different tables or passages of the source.

How the values were obtained:
Assay type in all cases: cell-based
[1] = system: chronic lymphocytic leukemia (CLL) cells in co-culture with stromal cells; experiment: Co-culture model of primary CLL cells and stromal cells (CellTiter-Blue viability); details: 48 h incubation; mean of 5 patients; FIG. 7
Text: FIG. 7: […] Data points represent the arithmetic mean of 5 patients calculated in relation to the control. […] The final DMSO concentration was 0.5%. […] In many tumors, the microenvironment plays a major role for the survival of malignant cells. In chronic lymphocytic leukemia (CLL), it has been shown that interaction with the microenvironment, among other things, promotes the survival of tumor cells during chemotherapy. Thus, co-culture models have been developed which better reflect the in vivo situation. The inventors used such a pre-clinical model for drug incubation to study the effect of stromal cells on viability.

[2] = system: Jurkat (T-cell acute lymphoblastic leukemia); experiment: Cell viability assay using EZ4U viability kit, Jurkat; details: Homo sapiens
Protocol: (§1) For quantification, cells are treated with a tetrazolium salt as indicator of cell viability. […] Then, the solution is analyzed photometrically at 450 nm with 620 nm as reference.
(§2) The final DMSO concentration was 0.5%. […] Then, wells were filled with 20 μl substrate solution for 2 to 4 hours and analyzed.
(§3) Cell viability was calculated relative to DMSO control for data comparison. IC50 values (50% inhibition of cell growth) were determined with GraphPad Prism® (Version 4.03) using nonlinear regression (sigmoidal dose-response with variable slope).

[3] = system: colon cancer cell line SW480; experiment: Cell proliferation assay using crystal violet, SW480; details: Homo sapiens, n = 3, 24 h incubation
Protocol: (§4) For quantification, cells are treated with crystal violet, a dye that stains proteins. After washing away of excess dye, the remaining crystal violet is dissolved in a sodium citrate solution. The solution is analyzed photometrically at 590 nm. The optical density of this solution depends on the concentration of crystal violet and therefore on the amount of cells. […] To reduce effects of evaporation, only the inner 60 wells of 96-well plates (coated with 0.1% gelatine solution for studies with HUVEC) were used for experiments.
(§5) Cells were seeded at a density of 5 000 cells per well in 100 μl growth medium (HUVEC) or 20 000 (HCT116), 15 000 (SW480 and 518A2) or 10 000 (HT29) cells per well in 200 μl growth medium in 55 wells per plate. 5 wells were filled with medium only. Additionally, a 96-well plate with cells in 12 wells and medium in 6 wells was prepared as T0-plate. The next day, additional 98 μl of growth medium were added in every well (only HUVEC).
(§6) Cells were treated with 2 μl of the working solution 24 h after seeding. Final compound concentrations in the well were 10 μM for the first round of screening. The final DMSO concentration was 0.5%. […] After finishing the addition of compounds, the T0-plate was stained with crystal violet for giving the cell density at time point zero. Before staining, the growth medium was poured away. Wells were filled with 50 μl crystal violet solution for 10 min. Then the staining solution was washed away with water. Since crystal violet is environmentally hazardous the waste was collected and disposed in an appropriate manner. After air drying of the plates the crystal violet on the cells was dissolved in 100 μl of sodium citrate solution, and the absorption was measured with a plate reader at 590 nm.
as §3, with “Mean values were corrected with the absorption of stained medium and the corrected absorption of T0 cells. Cell” for “Cell”, “growth” for “viability”
(§7) Compounds showing an inhibition of proliferation of more than 50% at a concentration of 10 μM were defined as active, and their IC50-values were determined.

[4] = system: melanoma cell line 518A2; experiment: Cell proliferation assay using crystal violet, 518A2; details: for IC50: Homo sapiens, 518A2, crystal violet assay, n = 3, 48 h incubation
Protocol: as §4, §5, §6
as §3, with “Mean values were corrected with the absorption of stained medium and the corrected absorption of T0 cells. Cell” for “Cell”, “growth” for “viability”
as §7

[5] = system: HL60 (Acute promyelocytic leukemia); experiment: Cell viability assay using EZ4U viability kit, HL60; details: Homo sapiens
Protocol: as §1, §2, §3

[6] = system: SU-DHL-9 (Non Hodgkin's lymphoma); experiment: Cell viability assay using EZ4U viability kit, SU-DHL-9
Protocol: as §1, §2, §3

[7] = system: K562 (Chronic myeloid leukemia); experiment: Cell viability assay using EZ4U viability kit, K562; details: Homo sapiens
Protocol: as §1, §2, §3

[8] = system: SU-DHL-6 or SU-DHL-9 NHL cells; experiment: Annexin V-FITC / propidium iodide staining, early apoptosis in NHL cells; details: 48 h incubation; FIG. 2
Protocol: FIG. 2. Changes in early apoptosis in SU-DHL-6 or SU-DHL-9 NHL cells after 48 h incubation with compounds 1 and 22, respectively. Effect of compound 1 in a) SU-DHL-6 and b) SU-DHL-9, and effect of compound 22 in c) SU-DHL-6 and d) SU-DHL-9. Apoptosis was detected using propidium iodide/Annexin V FACS staining (Bender MedSystems). Viability was detected using the EZ4U viability kit (Biomedica).
Annexin V binds to phosphatidylserine which is exposed at the cell surface during execution of apoptosis. […] The final DMSO concentration was 0.5%. All treatments and controls were performed twice. […] Then, growth medium was removed by centrifugation, the supernatant discarded and 200 μl of an Annexin V solution were added. After 10 minutes in the dark, cells were washed once with Annexin buffer and the solution removed by centrifugation. The supernatant was discarded again and cells were suspended in 200 μl of a propidium iodide solution. Cells were measured by flow cytometry with a total of 10 000 events. Data were analyzed with CellQuest Pro™.

[9] = system: hematological cell lines; experiment: Viability assay in cell lines, summary of Table 4; details: after 48 hours in most of the cell lines, read-out: IC50-values obtained by the viability assay in cell lines
Protocol: as §1, §2, §3

[10] = system: SU-DHL-6 (Non Hodgkin's lymphoma); experiment: Cell viability assay using EZ4U viability kit, SU-DHL-6; details: Homo sapiens
Protocol: as §1, §2, §3

[11] = system: CCRF-CEM (T-cell acute lymphoblastic leukemia); experiment: Cell viability assay using EZ4U viability kit, CCRF-CEM; details: Homo sapiens
Protocol: as §1, §2, §3

[12] = 24 h incubation, read-out: IC50 (nM) Jurkat 24 h (converted)
[13] = 48 h incubation, read-out: IC50 (nM) Jurkat 48 h (converted)
[14] = HL-60, 24 h incubation, read-out: IC50 (nM) HL60 24 h
[15] = HL-60, 48 h incubation, read-out: IC50 (nM) HL60 48 h
[16] = 24 h incubation, read-out: IC50 (nM) SU-DHL-9 24 h
[17] = 48 h incubation, read-out: IC50 (nM) SU-DHL-9 48 h
[18] = 24 h incubation, read-out: IC50 (nM) K562 24 h (converted)
[19] = 48 h incubation, read-out: IC50 (nM) K562 48 h (converted)
[20] = 24 h incubation, read-out: IC50 (nM) SU-DHL-6 24 h
[21] = 48 h incubation, read-out: IC50 (nM) SU-DHL-6 48 h
[22] = 24 h incubation, read-out: IC50 (nM) CCRF-CEM 24 h
[23] = 48 h incubation, read-out: IC50 (nM) CCRF-CEM 48 h

IC50 [2, 12] [nM]	IC50 [2, 13] [nM]	IC50 [3] [nM]	IC50 [4] [nM]	IC50 [5, 14] [nM]	IC50 [5, 15] [nM]	IC50 [6, 16] [nM]	IC50 [6, 17] [nM]	IC50 [7, 18] [nM]	IC50 [7, 19] [nM]	IC50 [10, 20] [nM]	IC50 [10, 21] [nM]	IC50 [11, 22] [nM]	IC50 [11, 23] [nM]	SMILES	viability of CLL cells in co-culture with stromal cells [1]	early apoptosis (propidium iodide/Annexin V FACS staining) [8]	IC50 [9] [nM]	potency relative to cisplatin ([4]; melanoma cell line 518A2, ratio of IC50 values)
1110	630	520	150	490	170	60	50	20900	50	180	20	70	70	COc1ccccc1/C=C/C=C/C(=O)c1cc(OC)c(OC)c(OC)c1 [Compound 1, 5-(2-Methoxyphenyl)-1-(3′,4′,5′-trimethoxyphenyl)-2,4-pentadiene-1-one]	higher cytotoxicity than the control drugs fludarabine and cyclophosphamide	induce early apoptosis	~10	–
7840	7210	30	40	10	20	30	50	17700	13700	10	40	40	40	CCOc1ccccc1C(=O)/C=C/c1ccc2ccccc2c1 [Compound 22, 3-(2-Naphthyl)-1-(2′-ethoxyphenyl)-2-propene-1-one]	higher cytotoxicity than the control drugs fludarabine and cyclophosphamide	induce early apoptosis	~10	about 250 times
